PubChem BioAssay (NCI)
“And” between values parts separate entries of the source, which are not always exact repeats. Identical values can stand only once.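 Five concentrations, 48 hours, 96-well plates. GI50: concentration for 50% inhibition of growth. TGI: total growth inhibition.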

Tests used:
Experiment in all cases: growth of human tumour cells (NCI), 48 h
COLO 205 colon = tested on: COLO 205 colon
NCI-H23 lung = tested on: NCI-H23 lung
NCI-H522 lung = tested on: NCI-H522 lung
SF-268 CNS = tested on: SF-268 CNS
SNB-75 CNS = tested on: SNB-75 CNS
TK-10 renal = tested on: TK-10 renal
UO-31 renal = tested on: UO-31 renal
A498 renal = tested on: A498 renal
IGROV1 ovarian = tested on: IGROV1 ovarian
MALME-3M melanoma = tested on: MALME-3M melanoma

| SMILES | GI50 (COLO 205 colon) | TGI (COLO 205 colon) | GI50 (NCI-H23 lung) | TGI (NCI-H23 lung) | GI50 (NCI-H522 lung) | TGI (NCI-H522 lung) | GI50 (SF-268 CNS) | TGI (SF-268 CNS) | GI50 (SNB-75 CNS) | TGI (SNB-75 CNS) | GI50 (TK-10 renal) | TGI (TK-10 renal) | GI50 (UO-31 renal) | TGI (UO-31 renal) | TGI (A498 renal) | TGI (IGROV1 ovarian) | TGI (MALME-3M melanoma) | GI50 (A498 renal) | GI50 (IGROV1 ovarian) | GI50 (MALME-3M melanoma) |
| --- | --- | --- | --- | --- | --- | --- | --- | --- | --- | --- | --- | --- | --- | --- | --- | --- | --- | --- | --- | --- |
| C=CCCCC(O)c1ccc(C(O)c2cnc3ccccc3c2)o1 (centres undefined) | 33.7 µM | > 100 µM | 14.3 µM | 49.6 µM | 28.4 µM | > 100 µM | 32.5 µM | > 100 µM | 99.2 µM | > 100 µM | 33.2 µM | 67 µM | 50.9 µM | > 100 µM | – | – | – | – | – | – |
| C[C@H]1CCC2C(CN3CCCCC3)C(=O)OC2[C@]2(C)C(=O)CC(N3CCCCC3)C12O (some centres undefined) | – | 18.6 µM | – | 25.9 µM | – | 3.25 µM | – | 44.8 µM | – | 49.4 µM | – | 34.3 µM | – | 27.9 µM | 12.8 µM | 84.1 µM | 47.5 µM | – | – | – |
| C=CCn1c(=O)c(C(=O)NC(=O)OCC)cn(C2CCCCC2)c1=O | – | > 100 µM | – | > 100 µM | – | – | – | – | – | > 100 µM | – | > 100 µM | – | > 100 µM | > 100 µM | > 100 µM | > 100 µM | – | – | – |
| CC(=O)Nc1ccc(Cc2ccc3[nH]c(=O)cc(C)c3c2)cc1 | – | > 100 µM | – | > 100 µM | – | > 100 µM | – | > 100 µM | – | 28.1 µM | – | > 100 µM | – | > 100 µM | > 100 µM | > 100 µM | > 100 µM | – | – | – |
| COC(=O)[C@H](C)[C@@H]1CC[C@](C)(CCC2=C(C)CCCC2(C)C)OO1 | – | > 25 µM | – | > 25 µM | – | > 25 µM | – | > 25 µM | – | > 25 µM | – | > 25 µM | – | > 25 µM | – | > 25 µM | > 25 µM | – | – | – |
| Cc1cc(Cl)ccc1Nc1nc2c(s1)C(=O)c1ccccc1C2=O | – | 16.8 µM | – | 3.96 µM | – | 4.08 µM | – | 11.3 µM | – | 22 µM | – | 33.4 µM | – | 11.6 µM | 42 µM | 11.9 µM | 2.92 µM | – | – | – |
| C=C(C)C1CCC2(C(=O)O)CCC3(C)C(CCC4C5(C)CCC(O)C(C)(C)C5CCC43C)C12 (centres undefined) | – | 16.6 µM | – | 12.7 µM | – | 18.2 µM | – | 28.7 µM | – | 33 µM | – | 28.9 µM | – | 24.5 µM | 20.7 µM | 28.7 µM | 27.9 µM | – | – | – |
| O=C1CCCCCCCCCCOC(=O)CCCCCCCCCCO1 | – | > 100 µM | – | > 100 µM | – | > 100 µM | – | > 100 µM | – | > 100 µM | – | > 100 µM | – | > 100 µM | > 100 µM | > 100 µM | > 100 µM | – | – | – |
| Cc1nc2cc(Nc3nc(Nc4ccc(F)cc4)nc(N4CCCC4)n3)ccc2n1Cc1ccccc1 | 1.79 µM | 3.48 µM | 2.2 µM | 5.31 µM | 1.69 µM | 4.07 µM | 1.94 µM | 3.9 µM | 1.58 µM | 3.45 µM | 1.89 µM | 3.37 µM | 1.51 µM | 2.92 µM | 3.24 µM | 3.48 µM | 3.17 µM | 1.45 µM | 1.9 µM | 1.61 µM |
| O=C(CC1(O)C(=O)Nc2ccc([N+](=O)[O-])cc21)c1ccc(Br)cc1 (centres undefined) | – | > 100 µM | – | > 100 µM | – | 47.9 µM | – | > 100 µM | – | 76.7 µM | – | 69.5 µM | – | > 100 µM | 50.3 µM | – | > 100 µM | – | – | – |
| O=c1[nH]c(-c2ccc([N+](=O)[O-])cc2)nc2ccc(Cl)cc12 | – | > 100 µM | – | > 100 µM | – | – | – | > 100 µM | – | > 100 µM | – | > 100 µM | – | > 100 µM | – | > 100 µM | > 100 µM | – | – | – |
| C1=CC(=NN=P(c2ccccc2)(c2ccccc2)c2ccccc2)C=C1 | – | > 100 µM | – | > 100 µM | – | > 100 µM | – | > 100 µM | – | > 100 µM | – | > 100 µM | – | > 100 µM | – | > 100 µM | > 100 µM | – | – | – |
| C=CNC(=S)n1nc(-c2ccccc2NC(=O)C(F)(F)F)c(=O)n(C(=S)NC=C)c1=S | – | – | – | > 100 µM | – | 60.5 µM | – | 46 µM | – | 62.8 µM | – | > 100 µM | – | 73.6 µM | – | > 100 µM | > 100 µM | – | – | – |
| COc1ccc2c(c1)CC1N(C)CCC13CCCCC23 (centres undefined) | – | > 100 µM | – | > 100 µM | – | > 100 µM | – | > 100 µM | – | > 100 µM | – | > 100 µM | – | > 100 µM | – | > 100 µM | > 100 µM | – | – | – |
| O=C(O)CCCc1cc2c(s1)-c1cccc3cccc-2c13 | – | 42.3 µM | – | 41.2 µM | – | 51.1 µM | – | > 100 µM | – | > 100 µM | – | > 100 µM | – | 43.4 µM | – | > 100 µM | > 100 µM | – | – | – |
| CC(O)c1ccc(C(O)/C(=N\NC(=O)c2ccncc2)c2nc3ccc([N+](=O)[O-])cc3[nH]c2=O)cc1 (centres undefined) | – | > 100 µM | – | > 100 µM | – | > 100 µM | – | > 100 µM | – | > 100 µM | – | – | – | > 100 µM | – | > 100 µM | > 100 µM | – | – | – |
| COc1cc2oc(-c3ccc(O)cc3)cc(=O)c2c(OC)c1O | – | > 100 µM | – | > 100 µM | – | > 100 µM | – | > 100 µM | – | 55.1 µM | – | > 100 µM | – | > 100 µM | – | > 100 µM | > 100 µM | – | – | – |
| O=C(CC(=O)N1N=C(c2ccccc2)C(N=Nc2ccccc2Cl)C1=O)Nc1ccccc1Cl (centres undefined) | – | > 100 µM | – | > 100 µM | – | > 100 µM | – | > 100 µM | – | 49.9 µM | – | 40.6 µM | – | > 100 µM | – | > 100 µM | – | – | – | – |
| COc1ccc(NC(=O)C2=CC(=O)c3ccc(O)cc3C2=O)c(OC)c1 | – | > 100 µM | – | > 100 µM | – | – | – | > 100 µM | – | > 100 µM | – | > 100 µM | – | – | > 100 µM | > 100 µM | > 100 µM | – | – | – |
| COC1C(C)OC(OC2CC(C)(O)Cc3cc4c(c(O)c32)C(=O)c2c(O)cc3c(c2C4=O)OC2OC3(C)C(O)C(N(C)C)C2O)C(OC)C1(C)OC (centres undefined) | – | – | 0.0395 µM and 0.0216 µM | – | 0.093 µM and 0.0186 µM | – | 0.0512 µM and 0.0161 µM | 1.81 µM and 1.03 µM | 0.00361 µM and 0.0315 µM | – | 0.109 µM | 0.781 µM | – | – | – | 3.47 µM and 5.05 µM | 0.383 µM and 0.0944 µM | – | – | 0.0178 µM |
| COc1cc(-c2ccc(=O)oc2C#Cc2ccccc2)cc(OC)c1OC | 34.1 µM | > 100 µM | 36.9 µM | > 100 µM | 44.5 µM | > 100 µM | 12.7 µM | > 100 µM | 12.1 µM | 32.6 µM | 29 µM | > 100 µM | 9.1 µM | > 100 µM | 70.6 µM | – | > 100 µM | 30.4 µM | – | > 100 µM |
